The values below come from patent publication US8022099B2, “N-benzyl pyrrolidine derivatives” (Hoffmann-La Roche Inc., priority 2008, dated 2011).

By Ki is commonly meant a dissociation constant, usually derived from enzyme kinetics or from competition with a known ligand.

This test deals with T1, human NK3 receptor (Homo sapiens, UniProt P29371).
T1 construct: expressed in transfected cells; host or cells: HEK293 cells (transient expression), membrane preparation
T1 sequence (P29371 1-465): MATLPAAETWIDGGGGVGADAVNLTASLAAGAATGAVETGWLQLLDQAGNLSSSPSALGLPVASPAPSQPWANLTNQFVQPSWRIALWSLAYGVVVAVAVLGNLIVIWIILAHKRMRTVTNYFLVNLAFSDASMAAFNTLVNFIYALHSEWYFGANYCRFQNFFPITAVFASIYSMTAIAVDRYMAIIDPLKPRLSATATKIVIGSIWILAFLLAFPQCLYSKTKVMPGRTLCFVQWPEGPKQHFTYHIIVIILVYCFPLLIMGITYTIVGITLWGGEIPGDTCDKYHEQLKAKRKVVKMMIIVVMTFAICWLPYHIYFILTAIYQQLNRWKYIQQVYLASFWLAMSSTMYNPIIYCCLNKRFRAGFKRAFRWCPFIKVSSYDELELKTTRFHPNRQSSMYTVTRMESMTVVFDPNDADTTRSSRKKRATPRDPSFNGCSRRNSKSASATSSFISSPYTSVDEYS
The experiment in a line: [3H]SR142801 competition binding assay. The following applies: hNK3 receptor binding, [3H]SR142801, membranes from HEK293 cells transiently expressing recombinant human NK3 receptor. The method, boiled down:
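Membranes from HEK293 cells transiently expressing human NK3 were incubated 75 min at RT with [3H]SR142801 at its KD and inhibitor (0.0003-10 μM) in Tris-HCl pH 7.4/MnCl2/phosphoramidon/BSA. Nonspecific binding used 10 μM SB222200. Ki from Hill-fitted IC50 via Cheng-Prusoff, duplicate determinations.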
For the compound `CN(Cc1ccc(C(F)(F)F)c(F)c1)[C@H]1CN(C(=O)CCCCN2CCOCC2)C[C@@H]1c1cccc(Cl)c1` (racemic) [Example 107, 1-{(3SR,4RS)-3-(3-Chloro-phenyl)-4-[(3-fluoro-4-trifluoromethyl-benzyl)-methyl-amino]-pyrrolidin-1-yl}-5-morpholin-4-yl-pentan-1-one], the Ki worked out at 81.2 nM.

Regarding `CN(Cc1ccc(C(F)(F)F)c(F)c1)[C@H]1CN(C(=O)CN2CCOCC2)C[C@@H]1c1ccc(Cl)c(Cl)c1` (racemic) [Example 113, 1-{(3SR,4RS)-3-(3,4-Dichloro-phenyl)-4-[(3-fluoro-4-trifluoromethyl-benzyl)-methyl-amino]-pyrrolidin-1-yl}-2-morpholin-4-yl-ethanone], the inhibition constant Ki amounted to 45.7 nM.

Turning to `CN1CCN(CC(=O)N2C[C@H](c3ccc(Cl)c(Cl)c3)[C@@H](N(C)Cc3ccc(C(F)(F)F)c(F)c3)C2)CC1` (racemic) [Example 114, 1-{(3SR,4RS)-3-(3,4-Dichloro-phenyl)-4-[(3-fluoro-4-trifluoromethyl-benzyl)-methyl-amino]-pyrrolidin-1-yl}-2-(4-methyl-piperazin-1-yl)-ethanone], the Ki came out at 40.2 nM.

As for `CN(Cc1ccc(C(F)(F)F)c(F)c1)[C@H]1CN(C(=O)CN2CCN(S(C)(=O)=O)CC2)C[C@@H]1c1ccc(Cl)c(Cl)c1` (racemic) [Example 115, 1-{(3SR,4RS)-3-(3,4-Dichloro-phenyl)-4-[(3-fluoro-4-trifluoromethyl-benzyl)-methyl-amino]-pyrrolidin-1-yl}-2-(4-methanesulfonyl-piperazin-1-yl)-ethanone], the inhibition constant (Ki) came to 13 nM.

With `CN(Cc1ccc(C(F)(F)F)c(F)c1)[C@H]1CN(C(=O)CN2CCN(S(=O)(=O)N(C)C)CC2)C[C@@H]1c1ccc(Cl)c(Cl)c1` (racemic) [Example 116, 4-(2-{(3SR,4RS)-3-(3,4-Dichloro-phenyl)-4-[(3-fluoro-4-trifluoromethyl-benzyl)-methyl-amino]-pyrrolidin-1-yl}-2-oxo-ethyl)-piperazine-1-sulfonic acid dimethylamide], the inhibition constant (Ki) was 16.9 nM.

Take `CN(C)CCN1CCN(CC(=O)N2C[C@H](c3ccc(Cl)c(Cl)c3)[C@@H](N(C)Cc3ccc(C(F)(F)F)c(F)c3)C2)CC1` (racemic) [Example 117, 1-{(3SR,4RS)-3-(3,4-Dichloro-phenyl)-4-[(3-fluoro-4-trifluoromethyl-benzyl)-methyl-amino]-pyrrolidin-1-yl}-2-[4-(2-dimethylamino-ethyl)-piperazin-1-yl]-ethanone]: the Ki came out at 19.3 nM.

Turning to `CN(Cc1ccc(C(F)(F)F)c(F)c1)[C@H]1CN(C(=O)CN2CCN(CCC#N)CC2)C[C@@H]1c1ccc(Cl)c(Cl)c1` (racemic) [Example 118, 3-[4-(2-{(3SR,4RS)-3-(3,4-Dichloro-phenyl)-4-[(3-fluoro-4-trifluoromethyl-benzyl)-methyl-amino]-pyrrolidin-1-yl}-2-oxo-ethyl)-piperazin-1-yl]-propionitrile], the Ki amounted to 11.2 nM.

Consider `CN(C)CCNCC(=O)N1C[C@H](c2ccc(Cl)c(Cl)c2)[C@@H](N(C)Cc2ccc(C(F)(F)F)c(F)c2)C1` (racemic) [Example 124, 1-{(3SR,4RS)-3-(3,4-Dichloro-phenyl)-4-[(3-fluoro-4-trifluoromethyl-benzyl)-methyl-amino]-pyrrolidin-1-yl}-2-(2-dimethylamino-ethylamino)-ethanone], for which the Ki was 96.4 nM.

Regarding `CN(C)CCCNCC(=O)N1C[C@H](c2ccc(Cl)c(Cl)c2)[C@@H](N(C)Cc2ccc(C(F)(F)F)c(F)c2)C1` (racemic) [Example 125, 1-{(3SR,4RS)-3-(3,4-Dichloro-phenyl)-4-[(3-fluoro-4-trifluoromethyl-benzyl)-methyl-amino]-pyrrolidin-1-yl}-2-(3-dimethylamino-propylamino)-ethanone], the inhibition constant (Ki) turned out to be 76.8 nM.

Take `CN(C)CCCN(C)CC(=O)N1C[C@H](c2ccc(Cl)c(Cl)c2)[C@@H](N(C)Cc2ccc(C(F)(F)F)c(F)c2)C1` (racemic) [Example 126, 1-{(3SR,4RS)-3-(3,4-Dichloro-phenyl)-4-[(3-fluoro-4-trifluoromethyl-benzyl)-methyl-amino]-pyrrolidin-1-yl}-2-[(3-dimethylamino-propyl)-methyl-amino]-ethanone]: the inhibition constant (Ki) came to 80.5 nM.

Turning to `CN(Cc1ccc(C(F)(F)F)c(F)c1)[C@H]1CN(C(=O)CNCCC#N)C[C@@H]1c1ccc(Cl)c(Cl)c1` (racemic) [Example 127, 3-(2-{(3SR,4RS)-3-(3,4-Dichloro-phenyl)-4-[(3-fluoro-4-trifluoromethyl-benzyl)-methyl-amino]-pyrrolidin-1-yl}-2-oxo-ethylamino)-propionitrile], the inhibitory constant (Ki) was 99.7 nM.

Take `CN(CCC#N)CC(=O)N1C[C@H](c2ccc(Cl)c(Cl)c2)[C@@H](N(C)Cc2ccc(C(F)(F)F)c(F)c2)C1` (racemic) [Example 128, 3-[(2-{(3SR,4RS)-3-(3,4-Dichloro-phenyl)-4-[(3-fluoro-4-trifluoromethyl-benzyl)-methyl-amino]-pyrrolidin-1-yl}-2-oxo-ethyl)-methyl-amino]-propionitrile]: the Ki worked out at 72 nM.

On to `CN(Cc1ccc(C(F)(F)F)c(F)c1)[C@H]1CN(C(=O)CN2CCN(CCCO)CC2)C[C@@H]1c1ccc(Cl)c(Cl)c1` (racemic) [Example 129, 1-{(3SR,4RS)-3-(3,4-Dichloro-phenyl)-4-[(3-fluoro-4-trifluoromethyl-benzyl)-methyl-amino]-pyrrolidin-1-yl}-2-[4-(3-hydroxy-propyl)-piperazin-1-yl]-ethanone], for which the inhibitory constant (Ki) is 17.1 nM.

As to `CN(Cc1ccc(C(F)(F)F)c(F)c1)[C@H]1CN(C(=O)CN2CCC(C#N)CC2)C[C@@H]1c1ccc(Cl)c(Cl)c1` (racemic) [Example 130, 1-(2-{(3SR,4RS)-3-(3,4-Dichloro-phenyl)-4-[(3-fluoro-4-trifluoromethyl-benzyl)-methyl-amino]-pyrrolidin-1-yl}-2-oxo-ethyl)-piperidine-4-carbonitrile], the inhibitory constant (Ki) stood at 25.4 nM.

As for `CN(Cc1ccc(C(F)(F)F)c(F)c1)[C@H]1CN(C(=O)CN2CCNCC2)C[C@@H]1c1ccc(Cl)c(Cl)c1` (racemic) [Example 131, 1-{(3SR,4RS)-3-(3,4-Dichloro-phenyl)-4-[(3-fluoro-4-trifluoromethyl-benzyl)-methyl-amino]-pyrrolidin-1-yl}-2-piperazin-1-yl-ethanone], the Ki stood at 33.4 nM.

As for `CN(Cc1ccc(C(F)(F)F)c(F)c1)[C@H]1CN(C(=O)CN2CCC(O)CC2)C[C@@H]1c1ccc(Cl)c(Cl)c1` (racemic) [Example 132, 1-{(3SR,4RS)-3-(3,4-Dichloro-phenyl)-4-[(3-fluoro-4-trifluoromethyl-benzyl)-methyl-amino]-pyrrolidin-1-yl}-2-(4-hydroxy-piperidin-1-yl)-ethanone], the inhibition constant Ki was determined as 26.3 nM.

Consider `CN(C)C1CCN(CC(=O)N2C[C@H](c3ccc(Cl)c(Cl)c3)[C@@H](N(C)Cc3ccc(C(F)(F)F)c(F)c3)C2)CC1` (racemic) [Example 136, 1-{(3SR,4RS)-3-(3,4-Dichloro-phenyl)-4-[(3-fluoro-4-trifluoromethyl-benzyl)-methyl-amino]-pyrrolidin-1-yl}-2-(4-dimethylamino-piperidin-1-yl)-ethanone], for which the Ki was found to be 18.9 nM.

`CC(=O)NC1CCN(CC(=O)N2C[C@H](c3ccc(Cl)c(Cl)c3)[C@@H](N(C)Cc3ccc(C(F)(F)F)c(F)c3)C2)CC1` (racemic) [Example 137, N-[1-(2-{(3SR,4RS)-3-(3,4-Dichloro-phenyl)-4-[(3-fluoro-4-trifluoromethyl-benzyl)-methyl-amino]-pyrrolidin-1-yl}-2-oxo-ethyl)-piperidin-4-yl]-acetamide]: the inhibitory constant (Ki) amounted to 8.7 nM.

With `CC(=O)N1CCN(CC(=O)N2C[C@H](c3ccc(Cl)c(Cl)c3)[C@@H](N(C)Cc3ccc(C(F)(F)F)c(F)c3)C2)CC1` (racemic) [Example 138, 2-(4-Acetyl-piperazin-1-yl)-1-{(3SR,4RS)-3-(3,4-dichloro-phenyl)-4-[(3-fluoro-4-trifluoromethyl-benzyl)-methyl-amino]-pyrrolidin-1-yl}-ethanone], the inhibition constant Ki turned out to be 8.8 nM.

As for `CC1CN(CC(=O)N2C[C@H](c3ccc(Cl)c(Cl)c3)[C@@H](N(C)Cc3ccc(C(F)(F)F)c(F)c3)C2)CC(C)N1` (mixture of isomers) [Example 139, 1-{(3SR,4RS)-3-(3,4-Dichloro-phenyl)-4-[(3-fluoro-4-trifluoromethyl-benzyl)-methyl-amino]-pyrrolidin-1-yl}-2-(3,5-dimethyl-piperazin-1-yl)-ethanone], the Ki worked out at 24.9 nM.

As for `CC1CN(CC(=O)N2C[C@H](c3ccc(Cl)c(Cl)c3)[C@@H](N(C)Cc3ccc(C(F)(F)F)c(F)c3)C2)CC(C)O1` (mixture of isomers) [Example 142, 1-{(3SR,4RS)-3-(3,4-Dichloro-phenyl)-4-[(3-fluoro-4-trifluoromethyl-benzyl)-methyl-amino]-pyrrolidin-1-yl}-2-(2,6-dimethyl-morpholin-4-yl)-ethanone], the inhibitory constant (Ki) was determined as 19.7 nM.

As for `CN(Cc1ccc(C(F)(F)F)c(F)c1)[C@H]1CN(C(=O)CN2CCC(NS(C)(=O)=O)CC2)C[C@@H]1c1ccc(Cl)c(Cl)c1` (racemic) [Example 143, N-[1-(2-{(3SR,4RS)-3-(3,4-Dichloro-phenyl)-4-[(3-fluoro-4-trifluoromethyl-benzyl)-methyl-amino]-pyrrolidin-1-yl}-2-oxo-ethyl)-piperidin-4-yl]-methanesulfonamide], the inhibition constant Ki was determined as 12 nM.
